Measurements: patent publication US10945978B2, “Treatment and diagnosis of melanoma” (The Rockefeller University, priority 2012, dated 2021)
Where a name gives a salt, the structure may show the parent alone.

What was measured:
MeWo-LM2 cells = assay: Lung metastatic colonization by MeWo-LM2 cells in NOD-SCID mice; type: in vivo, human; details: cells pre-incubated with recombinant ApoE 100 μg/mL for 24 hours before i.v. injection
Method: After 8 hours, the transfection media was replaced with fresh media. After 48 hours, 1×10^5 cells were injected intravenously into NOD-SCID mice to assess lung metastatic colonization or through intracardiac injection into athymic nude mice to assess systemic metastasis. For cell invasion and endothelial recruitment in vitro assays, the cells were used 96 hours post-transfection.

DNAJA4 = DNAJA4 expression by qRT-PCR in parental MeWo cells; type: cell-based, human; details: GW3965 48 hours
Method: Total RNA was extracted from various cell lines using the miRvana kit (AM1560, Applied Biosystems, Austin, Tex.). The expression levels of mature miRNAs were quantified using the Taqman miRNA expression assay (4427975-0002228, Applied Biosystems). RNU44 was used as an endogenous control for normalization. For mRNA expression analyses, 600 ng of total RNA was reverse transcribed using the cDNA First-Strand Synthesis Kit (18080-051, Invitrogen), and roughly 200 ng of the resulting cDNA was then mixed with SYBR green PCR Master Mix (4309155, Applied Biosystems) and the appropriate primers. Each reaction was performed in quadruplicate, and mRNA expression was quantified by performing real-time PCR amplification using an ABI Prism 7900HT Real-Time PCR System (Applied Biosystems). GAPDH was used as an endogenous control for normalization. The following primers were used: […]

[1] = tested on: SK-Mel-239 vemurafenib-resistant clone cells; assay: SK-Mel-239 vemurafenib-resistant tumors in NOD Scid gamma mice; type: in vivo, human; details: GW3965 diet 100 mg/kg
[2] = tested on: MeWo human melanoma cells; assay: Subcutaneous MeWo tumor growth in immunocompromised mice; type: in vivo; details: oral, GW3965-supplemented diet
Method: Animals were palpated weekly for tumor formation, after which sizeable tumors were measured twice a week. Tumor volume was calculated as (small diameter)^2×(large diameter)/2.

[3] = tested on: B16F10, MeWo and SK-Mel-334.2 cells; assay: Overall survival of mice bearing subcutaneous melanoma tumors; type: in vivo, mouse; details: chow supplemented with GW3965 100 mg/kg after tumor establishment
[4] = tested on: Tyr::CreER; B-RafV600E/+; Ptenlox/+ and Tyr::CreER; B-RafV600E/+; Ptenlox/lox mice; assay: Genetically-initiated model of melanoma progression; type: in vivo, mouse
Method: The Tyr::CreER; B-Raf^V600E/+; Pten^lox/+/Tyr::CreER; B—Raf^V600E/+; Pten^lox/lox conditional model of melanoma progression was previously established and characterized by Dankort et al. (2009). Briefly, melanoma in these mice was induced at 6 weeks of age by intraperitoneally injecting 4-HT (H6278, 70% isomer, Sigma-Aldrich, St Louis, Mo.) at 25 mg/kg administered in peanut oil on three consecutive days. The 4-HT stock solution was prepared by dissolving it in 100% EtOH at 50 mg/mL by heating at 45° C. for 5 min and mixing. Once dissolved, the stock 4-HT solution was then diluted by 10-fold in peanut oil, yielding a 5 mg/mL 4-HT working solution that was then injected into mice. After the first 4-HT injection, mice were blindedly assigned to receive either a control diet or a diet supplemented with GW3965 (100 mg/kg). Mice were examined three times a week for the presence and progression of melanoma lesions. At day 35, dorsal skin samples were harvested from control-treated and GW3965-treated mice, fixed in 4% PFA and photographed at 10×. The percentage of pigmented melanoma lesion area out of the total skin area was quantified using ImageJ. For survival analyses, mice were monitored daily for melanoma progression and euthanized according to a standard body condition score, taking into account initial signs of moribund state and discomfort associated with the progression of melanoma burden. Post-mortem, the lungs, brains, and salivary glands were harvested and examined for the presence of macroscopic melanoma lesions.

[5] = tested on: HT-144 melanoma line, SK-Mel-334.2 primary melanoma line; assay: Lung metastatic colonization by HT-144 and SK-Mel-334.2 cells in NOD scid mice; type: in vivo, human
Method: Melanoma cells used for in vivo metastasis assays were transduced with a stably expressed retroviral construct encoding a luciferase reporter gene (Ponomarev et al., 2004), allowing us to monitor the in vivo progression of melanoma cells by bioluminescence imaging. The following numbers of melanoma cells, resuspended in 100 μL of PBS, were injected intravenously via the tail-vein: 4×10^4 MeWo cells, 2.5×10^5 HT-144 cells, 2×10^5 SK-Mel-334.2 cells, 5×10^4B16F10 cells, and 1×10^5 YUMM cells. The MeWo, HT-144, and SK-Mel-334.2 cells were injected into 6-8 week-old sex-matched NOD scid mice, while the B16F10 and YUMM cells were injected into 6-8 week-old sex-matched C57BL/6 mice. In all experiments assessing at the effects of GW3965 on metastasis formation, mice were pre-treated on a control diet or a GW3965-supplemented diet (20 mg/kg) for 10 days. To assess the effect of GW3965 treatment on brain metastasis, 1×10^5 MeWo brain-metastatic derivatives were injected intracardially into athymic nude mice. Immediately following injection, mice were randomly assigned to a control diet or GW3965-supplemented diet (100 mg/kg). […]

[6] = tested on: MDA-468 human breast cancer cells; assay: MDA-468 breast cancer tumor growth in Nod Scid gamma mice; type: in vivo; details: GW3965-supplemented diet 75 mg/kg/day
Method: The mice were assigned to a control diet treatment or a GW3965-supplemented diet treatment (75 mg/kg/day) two days prior to injection of the cancer cells.

Compound: recombinant human ApoE: recombinant human ApoE3 (4696, BioVision)
- suppression of metastatic colonization (MeWo-LM2 cells): over 300 fold

Compound: O=C(O)Cc1cccc(OCCCN(Cc2cccc(C(F)(F)F)c2Cl)CC(c2ccccc2)c2ccccc2)c1 [GW3965 2, 3-[3-[N-(2-Chloro-3-trifluoromethylbenzyl)-(2,2-diphenylethyl)amino]propyloxy] phenylacetic acid hydrochloride]
- expression of DNAJA4 (DNAJA4): increased
- suppression of tumor growth [1]: 72%
- survival of mice bearing vemurafenib-resistant melanoma burden [1]: significantly prolonged
- tumor growth inhibition [2]: 70%
- overall survival time [3]: substantially prolonged
- number of lymphatic metastases detected post-mortem ([4]; Ptenlox/lox mice, GW3965 100 mg/kg): decrease
- tumor progression ([4]; oral, GW3965 diet 100 mg/kg after melanoma initiation): attenuated
- overall survival times ([4]; oral, GW3965 diet 100 mg/kg, Ptenlox/+ and Ptenlox/lox): significantly extended
- metastatic colonization ([5]; HT-144 melanoma line): suppressed
- metastatic colonization ([5]; SK-Mel-334.2 primary melanoma line): suppressed
- breast cancer tumor size [6]: significant reduction
